Data: patent US6825202B2, “Arylsulfonyl derivatives with 5-HT6 receptor affinity” (Syntex (U.S.A.) LLC, priority 2001, dated 2004)
Where a name gives a salt, the structure may show the parent alone.

Row | melting point [°C] | SMILES
1 | 235.5 to 236 | COc1ccc(S(=O)(=O)c2ccc(Cl)cc2)cc1C1CCNCC1 (as salt: hydrochloride) [compound 301, 4-[5-(4-chloro-benzenesulfonyl)2methoxy-phenyl] piperidine]
2 | 263.4 to 272.1 | COc1ccc(S(=O)(=O)c2ccc(Cl)cc2)cc1N1CCNCC1
3 | 265 to 266.3 | COc1ccc(S(=O)(=O)c2cccc(Cl)c2)cc1N1CCNCC1
4 | 279.9 to 283.3 | COc1ccc(S(=O)(=O)c2ccc3ccccc3c2)cc1N1CCNCC1
5 | 155 to 159 | COc1ccc(S(=O)(=O)c2ccc(F)c3ccccc23)cc1N1CCNCC1 (as salt: hydrochloride) [compound 401, 1-[5-(4-fluoro-naphthalene-1-sulfonyl)2-methoxyphenyl]piperazine]
6 | 246 to 250.1 | COc1ccc(S(=O)(=O)c2cccc(F)c2)cc1N1CCNCC1
7 | 245.9 to 246.2 | COc1ccc(S(=O)(=O)c2cc(Cl)cc(Cl)c2)cc1N1CCNCC1
